In data set [1] the test system is Plasmodium falciparum. As to the kind of experiment: Antimalarial activity against chloroquine-resistant Plasmodium falciparum K1 incubated for 72 hrs by SYBR Green 1 assay. Type of data set: functional, organism-based. To be noted: K1, 72 h.
Data set [2] relates to Plasmodium falciparum. As to the kind of experiment: Antimalarial activity against chloroquine-sensitive Plasmodium falciparum 3D7 incubated for 72 hrs by SYBR Green 1 assay. Type of data set: functional, organism-based. The following applies: 3D7, 72 h.
A short description of data set [3]: Selectivity index, ratio of CC50 for african green monkey Vero cells to IC50 for chloroquine-sensitive Plasmodium falciparum 3D7. Type of data set: functional.
A short description of data set [4]: Selectivity index, ratio of CC50 for african green monkey Vero cells to IC50 for chloroquine-resistant Plasmodium falciparum K1. Format: functional.
The nature of data set [5]: Cytotoxicity against african green monkey Vero cells after 72 hrs by MTT assay. Format: cell-based. To be noted: chlorocebus sabaeus. (In general: Tetrazolium assays rely on reduction of a dye to a coloured formazan, in cell work by metabolically active cells.)

Broadly, the IC50 is the point on the concentration scale where inhibition reaches its midpoint. For orientation: CC50 means the concentration that lowers cell viability or growth by half.

Turning to `CNC1=C([N+](=O)[O-])C(c2ccc(N3CCCN(c4ccnc5cc(Cl)ccc45)CC3)cc2)c2cc(Br)ccc2O1` (stereo not drawn), the IC50 in the data set with Plasmodium falciparum [1] stood at 1.27 µM; with Plasmodium falciparum [2] it was 2.24 µM. Besides, the “Ratio CC50/IC50” value is listed as >89.3 in data set [3] and >157.5 in data set [4]. The CC50 at 72 h in data set [5] was > 200 µM.

Consider `CNC1=C([N+](=O)[O-])C(c2ccc(N3CCN(c4ccnc5cc(Cl)ccc45)CC3)cc2)c2cc(Cl)cc(Cl)c2O1` (stereo not drawn), for which the IC50 in the data set with Plasmodium falciparum [1] was determined as 1.45 µM; with Plasmodium falciparum [2] it was 3.92 µM. The figures for the “Ratio CC50/IC50” value in data set [3] and in data set [4] were 24.9 and 67.4, respectively. Further, the CC50 at 72 h in data set [5] amounted to 97.8 µM.

Take `Clc1ccc2c(N3CCN(c4ccccc4)CC3)ccnc2c1`: the IC50 in the data set with Plasmodium falciparum [1] is 2.49 µM; in the data set on Plasmodium falciparum [2], 2.69 µM. Besides, the “Ratio CC50/IC50” value was found to be 66.3 in data set [3] and 71.7 in data set [4]. This compound also yielded a half-maximal cytotoxic concentration (CC50) at 72 h in data set [5] of 179 µM.

With `CNC1=C([N+](=O)[O-])C(c2ccc(N3CCN(c4ccnc5cc(Cl)ccc45)CC3)cc2)c2cc(Br)cc(Br)c2O1` (stereo not drawn), the IC50 was 2.93 µM in the data set with Plasmodium falciparum [1] and > 5 µM in the data set with Plasmodium falciparum [2]. Further, the “Ratio CC50/IC50” value in data set [4] was >68.2. Further, the CC50 at 72 h in data set [5] was > 200 µM.

For `CNC1=C([N+](=O)[O-])C(c2ccc(N3CCN(c4ccnc5cc(Cl)ccc45)CC3)cc2)c2cc(OC)ccc2O1` (stereo not drawn), the IC50 with Plasmodium falciparum [1] is 4.25 µM; in the data set with Plasmodium falciparum [2] it was 2.48 µM. In addition, the “Ratio CC50/IC50” value is given as 33 in data set [3] and 19.3 in data set [4]. In data set [5], the CC50 at 72 h was determined as 81.9 µM.

On to `O=[N+]([O-])C1=C(NCCc2ccccc2)Oc2ccccc2C1c1ccc(N2CCN(c3ccnc4cc(Cl)ccc34)CC2)cc1` (stereo not drawn), for which the IC50 came to 1.74 µM in the data set on Plasmodium falciparum [1] and 3.31 µM with Plasmodium falciparum [2]. Further, the “Ratio CC50/IC50” value in data set [3] was 39.6; in data set [4], 75.5. In data set [5], this compound returned a CC50 at 72 h of 131 µM.

`O=[N+]([O-])C1=C(NCc2ccccc2)Oc2ccccc2C1c1ccc(N2CCN(c3ccnc4cc(Cl)ccc34)CC2)cc1` (stereo not drawn): the IC50 in the data set on Plasmodium falciparum [1] and in the data set on Plasmodium falciparum [2] was > 5 µM throughout. The “Ratio CC50/IC50” value in data set [3] and in data set [4] was <13.3 in each case. In data set [5], this compound yielded a cytotoxic concentration (CC50) at 72 h of 66.5 µM.

As to `CCCCNC1=C([N+](=O)[O-])C(c2ccc(N3CCN(c4ccnc5cc(Cl)ccc45)CC3)cc2)c2ccccc2O1` (stereo not drawn), the IC50 in the data set with Plasmodium falciparum [1] is 3.57 µM; in the data set with Plasmodium falciparum [2], 3.09 µM. Moreover, the results for the “Ratio CC50/IC50” value in data set [3] and in data set [4] were 34.6 and 29.9, respectively. In addition, the CC50 at 72 h in data set [5] stood at 107 µM.

Regarding `CCOc1cccc2c1OC(NC)=C([N+](=O)[O-])C2c1ccc(N2CCN(c3ccnc4cc(Cl)ccc34)CC2)cc1` (stereo not drawn), the values for the IC50 in the data set with Plasmodium falciparum [1] and in the data set on Plasmodium falciparum [2] were 2.95 µM and 2.93 µM, respectively. In addition, the “Ratio CC50/IC50” value was 13.7 in data set [3] and 13.6 in data set [4]. For the same compound, in data set [5], the midpoint of cytotoxicity, the CC50 at 72 h, lay at 40.4 µM.

As for `CNC1=C([N+](=O)[O-])C(c2ccc(N3CCN(c4ccnc5cc(Cl)ccc45)CC3)cc2)c2ccccc2O1` (stereo not drawn), the IC50 in the data set on Plasmodium falciparum [1] was 3.38 µM; in the data set with Plasmodium falciparum [2], 1.11 µM. Also, the “Ratio CC50/IC50” value in data set [3] is listed as >180.2; in data set [4], >59.2. The CC50 at 72 h in data set [5] was > 200 µM.

As for `CNC1=C([N+](=O)[O-])C(c2ccc(N3CCN(c4ccnc5cc(Cl)ccc45)CC3)cc2)c2cccc(OC)c2O1` (stereo not drawn), the figures for the IC50 with Plasmodium falciparum [1] and in the data set with Plasmodium falciparum [2] were 2.4 µM and 2.47 µM, respectively. Further, the “Ratio CC50/IC50” value in data set [3] is 8.8; in data set [4], 9.1. Besides, the 50% cytotoxic concentration (CC50) at 72 h in data set [5] was 21.8 µM.

Consider `CNC1=C([N+](=O)[O-])C(c2ccc(N3CCCN(c4ccnc5cc(Cl)ccc45)CC3)cc2)c2ccccc2O1` (stereo not drawn), for which the IC50 with Plasmodium falciparum [1] and in the data set on Plasmodium falciparum [2] was > 5 µM in each case. The “Ratio CC50/IC50” value in data set [3] is listed as <18.3. In addition, half-maximal cytotoxicity in data set [5] (CC50 at 72 h) was put at 91.4 µM.

Consider `CNC1=C([N+](=O)[O-])C(c2ccc(N3CCN(c4ccnc5cc(Cl)ccc45)CC3)cc2)c2cc(Cl)ccc2O1` (stereo not drawn), for which the values for the IC50 in the data set with Plasmodium falciparum [1] and in the data set on Plasmodium falciparum [2] were 2.99 µM and 1.37 µM, respectively. For the same compound, the “Ratio CC50/IC50” value turned out to be 54.3 in data set [3] and 24.9 in data set [4]. In data set [5], this compound showed a CC50 at 72 h of 74.5 µM.

Regarding `CNC1=C([N+](=O)[O-])C(c2ccc(N3CCN(c4ccnc5cc(Cl)ccc45)CC3)cc2)c2c(C=O)c(C)cc(Cl)c2O1` (stereo not drawn), the IC50 came to 0.87 µM in the data set with Plasmodium falciparum [1] and 2.34 µM in the data set with Plasmodium falciparum [2]. In addition, the “Ratio CC50/IC50” value is 35.8 in data set [3] and 96.5 in data set [4]. In addition, the CC50 at 72 h in data set [5] came out at 84 µM.

In the case of `CNC1=C([N+](=O)[O-])C(c2ccc(N3CCCN(c4ccnc5cc(Cl)ccc45)CC3)cc2)c2cc(Cl)ccc2O1` (stereo not drawn), the IC50 with Plasmodium falciparum [1] is 0.496 µM; in the data set on Plasmodium falciparum [2] it was 0.29 µM. In addition, the results for the “Ratio CC50/IC50” value in data set [3] and in data set [4] were 265.4 and 155.2, respectively. Moreover, in data set [5], the half-maximal cytotoxic concentration (CC50) at 72 h turned out to be 77 µM.

In the case of `CNC1=C([N+](=O)[O-])C(c2ccc(N3CCN(c4ccnc5cc(Cl)ccc45)CC3)cc2)c2cc([N+](=O)[O-])ccc2O1` (stereo not drawn), the results for the IC50 in the data set with Plasmodium falciparum [1] and with Plasmodium falciparum [2] were 1.78 µM and 0.62 µM, respectively. The “Ratio CC50/IC50” value in data set [3] came to 51.4; in data set [4], 17.9. For the same compound, in data set [5], half-maximal cytotoxicity (CC50 at 72 h) was put at 31.9 µM.

In the case of `CNC1=C([N+](=O)[O-])C(c2ccc(N3CCN(c4ccnc5cc(Cl)ccc45)CC3)cc2)c2cc(Br)ccc2O1` (stereo not drawn), the IC50 in the data set on Plasmodium falciparum [1] was found to be 1.75 µM; in the data set on Plasmodium falciparum [2], 1.88 µM. Further, the “Ratio CC50/IC50” value in data set [3] is 47.1; in data set [4], 50.6. The same compound returned a cytotoxic concentration (CC50) at 72 h in data set [5] of 88.6 µM.

For `Clc1ccc2c(N3CCCN(c4ccccc4)CC3)ccnc2c1`, the IC50 in the data set on Plasmodium falciparum [1] was determined as 4.47 µM; with Plasmodium falciparum [2] it was 3.98 µM. The “Ratio CC50/IC50” value in data set [3] is recorded as 37.1; in data set [4], 33.1. The compound also had a CC50 at 72 h in data set [5] of 148 µM.

(Values after ChEMBL document CHEMBL3616449, “Synthesis, in vitro and in silico antimalarial activity of 7-chloroquinoline and 4H-chromene conjugates” (Bioorg Med Chem Lett, 2015).)
